Assays:
Conditions in all cases: scale 0 to 100
ZEAMX = experiment: greenhouse pre-emergence treatment, damage to crop plant ZEAMX; format: in vivo, Zea mays
Excerpt: (§1) The seeds of the test plants were sown separately for each species. For the pre-emergence treatment, the active ingredients, which had been suspended or emulsified in water, were applied directly after sowing by means of finely distributing nozzles. The containers were irrigated gently to promote germination and growth and subsequently covered with transparent plastic hoods until the plants had emerged. This cover caused uniform germination of the test plants, unless this has been impaired by the active ingredients. The respective benzoxazinone of formula I was formulated as a 5% by weight strength emulsion concentrate, and the safener of formula II as a 5% by weight emulsion concentrate. Optional component C can be used in its appropriate available formulation type. The benzoxazinone of formula I, the safener of formula II, and optional component C were introduced to the spray liquid with the amount of solvent system used for applying the active compound. The test period extended over 20 days. During this time, the plants were tended, and their response to the treatments with active compound was evaluated. Depending on the species, the plants were kept at 10-25° C. or 20-35° C. During the test period the plants were tended, and their response to the individual treatments was evaluated. Evaluation was carried out using a scale from 0 to 100. 100 means no emergence of the plants, or complete destruction of at least the aerial moieties, and 0 means no damage, or normal course of growth. A good herbicidal activity is given at values of at least 70 and a very good herbicidal activity is given at values of at least 85. A safener action is present if the damage to the crop plant caused by a mixture according to the present invention which contains a benzoxazinone of formula I and a safener of formula II is less than the damage caused when the benzoxazinone of formula I (optionally in mixture with a further herbicide C) according to the present invention is used without the safener of formula II.

TRZAW = experiment: greenhouse pre-emergence treatment, damage to crop plant TRZAW; format: in vivo
Excerpt: as §1

ORYSA [1] = experiment: greenhouse pre-emergence treatment, damage to crop plant ORYSA; format: in vivo, Oryza sativa
Excerpt: as §1

SETFA [2] = experiment: greenhouse pre-emergence treatment, herbicidal action against SETFA; format: in vivo, Setaria faberi
Excerpt: as §1, with “85.” for “85. A safener action is present if the damage to the crop plant caused by a mixture according to the present invention which contains a benzoxazinone of formula I and a safener of formula II is less than the damage caused when the benzoxazinone of formula I (optionally in mixture with a further herbicide C) according to the present invention is used without the safener of formula II.”

ORYSA [3] = experiment: greenhouse post-emergence treatment, damage to crop plant ORYSA; format: in vivo, Oryza sativa
Excerpt: (§2) The seeds of the test plants were sown separately for each species. For the post-emergence treatment, the test plants were first grown to a height of 1 to 15 cm, depending on the plant habit, and only then treated with the active ingredients which had been suspended or emulsified in water. For this purpose, the test plants were either sown directly and grown in the same containers, or they were first grown separately as seedlings and transplanted into the test containers a few days prior to treatment. The respective benzoxazinone of formula I was formulated as a 5% by weight strength emulsion concentrate, and the safener of formula II as a 5% by weight emulsion concentrate. Optional component C can be used in its appropriate available formulation type. The benzoxazinone of formula I, the safener of formula II, and optional component C were introduced to the spray liquid with the amount of solvent system used for applying the active compound. The test period extended over 20 days. During this time, the plants were tended, and their response to the treatments with active compound was evaluated. Depending on the species, the plants were kept at 10-25° C. or 20-35° C. During the test period the plants were tended, and their response to the individual treatments was evaluated. Evaluation was carried out using a scale from 0 to 100. […]

SETFA [4] = experiment: greenhouse post-emergence treatment, herbicidal action against SETFA; format: in vivo, Setaria faberi
Excerpt: as §2

[5] = Example 1, I.a.35 50 g/ha alone
[6] = Example 2, I.a.35 25 g/ha alone
[7] = Example 3, I.a.35 12.5 g/ha alone
[8] = Example 4, I.a.35 25 g/ha alone
[9] = Example 1, II.a.12 150 g/ha alone
[10] = Example 2, II.a.12 75 g/ha alone
[11] = Example 3, II.a.12 150 g/ha alone
[12] = Example 4, II.a.12 75 g/ha alone

C#CCN1C(=O)C(F)(F)Oc2cc(F)c(-n3c(=O)n(C)c(=S)n(C)c3=O)cc21 [I.a.35, 1,5-dimethyl-6-thioxo-3-(2,2,7-trifluoro-3-oxo-4-(prop-2-ynyl)-3,4-dihydro-2H-benzo[b][1,4]oxazin-6-yl)-1,3,5-triazinane-2,4-dione]
90: herbicidal action against SETFA (SETFA [2]; [7])
30: damage to crop plant ORYSA (ORYSA [1]; [7])
45: damage to crop plant TRZAW (TRZAW; [7])
60: damage to crop plant TRZAW (TRZAW; [6]) | damage to crop plant ORYSA (ORYSA [3]; [8])
25: damage to crop plant ZEAMX (ZEAMX; [7])
40: damage to crop plant ZEAMX (ZEAMX; [6]) | damage to crop plant ORYSA (ORYSA [1]; [6])
65: damage to crop plant ZEAMX (ZEAMX; [5]) | damage to crop plant TRZAW (TRZAW; [5]) | damage to crop plant ORYSA (ORYSA [1]; [5])
100: herbicidal action against SETFA (SETFA [2]; [5]) | herbicidal action against SETFA (SETFA [2]; [6]) | herbicidal action against SETFA (SETFA [4]; [8])

CNC(=O)Nc1ccc(S(=O)(=O)NC(=O)c2ccccc2OC)cc1 [II.a.12]
0: damage to crop plant ZEAMX (ZEAMX; [9]) | damage to crop plant ZEAMX (ZEAMX; [10]) | damage to crop plant ZEAMX (ZEAMX; [11]) | damage to crop plant TRZAW (TRZAW; [9]) | damage to crop plant TRZAW (TRZAW; [10]) | damage to crop plant TRZAW (TRZAW; [11]) | damage to crop plant ORYSA (ORYSA [1]; [9]) | damage to crop plant ORYSA (ORYSA [1]; [10]) | damage to crop plant ORYSA (ORYSA [1]; [11]) | herbicidal action against SETFA (SETFA [2]; [9]) | herbicidal action against SETFA (SETFA [2]; [10]) | herbicidal action against SETFA (SETFA [2]; [11]) | damage to crop plant ORYSA (ORYSA [3]; [12]) | herbicidal action against SETFA (SETFA [4]; [12])
